Test results: PMC11471619, “A palmitoyl transferase chemical–genetic system to map ZDHHC-specific S-acylation” (Nature Biotechnology, 2024)

Legend:
Experiment in all cases: probe loading in HEK293T, FLAG IP, TAMRA click, in-gel fluorescence
Type in all cases: cell-based
Conditions in all cases: 15 µM, fed as free acid and activated to the CoA ester in cells; covalent thioester
ZDHHC11 = target: T1, ZDHHC11 (Homo sapiens, UniProt Q9H8X9, M181A)
T1 construct: N-terminal 3xFLAG tag; expressed in HEK293T, anti-FLAG immunoprecipitated
T1 sequence (Q9H8X9 1-412 M181A): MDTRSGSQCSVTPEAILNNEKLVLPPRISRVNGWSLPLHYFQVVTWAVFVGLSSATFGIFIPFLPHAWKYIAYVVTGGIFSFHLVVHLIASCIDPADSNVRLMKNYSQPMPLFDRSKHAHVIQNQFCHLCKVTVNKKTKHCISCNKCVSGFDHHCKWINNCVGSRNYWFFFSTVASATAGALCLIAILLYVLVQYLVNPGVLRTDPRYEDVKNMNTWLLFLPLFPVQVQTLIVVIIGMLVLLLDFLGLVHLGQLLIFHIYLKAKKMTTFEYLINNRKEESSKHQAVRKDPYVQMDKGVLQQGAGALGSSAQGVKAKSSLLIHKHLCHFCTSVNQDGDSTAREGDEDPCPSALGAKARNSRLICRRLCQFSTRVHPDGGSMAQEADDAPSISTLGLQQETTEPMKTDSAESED
Text: probe loading in HEK293T, FLAG IP, TAMRA click, in-gel fluorescence on ZDHHC11 | ZDHHC11(M181A)/16-cPr

ZDHHC15 = target: T2, ZDHHC15 (Homo sapiens, UniProt Q96MV8, Y184G)
T2 construct: N-terminal 3xFLAG tag; expressed in HEK293T, anti-FLAG immunoprecipitated
T2 sequence (Q96MV8 1-337 Y184G): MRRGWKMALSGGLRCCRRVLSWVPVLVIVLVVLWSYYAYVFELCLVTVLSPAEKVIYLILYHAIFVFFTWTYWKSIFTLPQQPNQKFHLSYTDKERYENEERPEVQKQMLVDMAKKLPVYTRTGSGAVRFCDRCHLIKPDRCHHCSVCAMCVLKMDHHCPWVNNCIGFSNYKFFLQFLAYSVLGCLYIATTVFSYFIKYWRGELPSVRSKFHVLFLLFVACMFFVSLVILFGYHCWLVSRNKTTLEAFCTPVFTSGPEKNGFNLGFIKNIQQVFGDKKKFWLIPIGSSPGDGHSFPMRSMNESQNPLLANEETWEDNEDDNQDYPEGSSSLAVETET
Text: probe loading in HEK293T, FLAG IP, TAMRA click, in-gel fluorescence on ZDHHC15 | ZDHHC15(Y184G)/20-cPr

ZDHHC3 = target: T3, ZDHHC3 (Homo sapiens, UniProt Q9NYG2, I182G)
T3 construct: N-terminal 3xFLAG tag; expressed in HEK293T, anti-FLAG immunoprecipitated
T3 sequence (Q9NYG2 1-299 I182G): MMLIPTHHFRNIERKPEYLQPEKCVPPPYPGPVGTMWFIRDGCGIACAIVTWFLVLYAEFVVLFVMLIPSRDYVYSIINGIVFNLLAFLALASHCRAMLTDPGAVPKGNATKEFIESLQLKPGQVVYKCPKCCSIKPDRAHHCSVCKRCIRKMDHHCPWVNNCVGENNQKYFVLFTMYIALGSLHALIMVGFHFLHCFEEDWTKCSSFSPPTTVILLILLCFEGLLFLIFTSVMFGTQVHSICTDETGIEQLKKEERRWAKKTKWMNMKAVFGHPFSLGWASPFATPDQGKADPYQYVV

ZDHHC7 = target: T4, ZDHHC7 (Homo sapiens, UniProt Q9NXF8, L57G)
T4 construct: N-terminal 3xFLAG tag; expressed in HEK293T, anti-FLAG immunoprecipitated
T4 sequence (Q9NXF8 1-308 L57G): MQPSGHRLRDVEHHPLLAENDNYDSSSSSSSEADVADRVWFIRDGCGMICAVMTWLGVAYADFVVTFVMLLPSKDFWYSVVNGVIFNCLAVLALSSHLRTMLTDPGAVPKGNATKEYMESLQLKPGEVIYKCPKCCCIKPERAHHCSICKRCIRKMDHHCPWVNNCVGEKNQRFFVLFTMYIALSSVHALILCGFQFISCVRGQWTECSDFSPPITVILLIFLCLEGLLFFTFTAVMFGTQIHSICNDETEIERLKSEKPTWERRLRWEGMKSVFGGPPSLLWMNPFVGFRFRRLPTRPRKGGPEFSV
Text: probe loading in HEK293T, FLAG IP, TAMRA click, in-gel fluorescence on ZDHHC7 | ZDHHC7(L57G)/20-Bz

Question: Which “probe loading in HEK293T, FLAG IP, TAMRA click, in-gel fluorescence” value (“probe loading in HEK293T, FLAG IP” below) (ZDHHC11) does the source give for `C#CCN(CCCCCCCCCCCC(=O)O)C(=O)C1CC1` [6b, 12-(N-(Prop-2-yn-1-yl)cyclopropanecarboxamido)dodecanoic acid] here?
Answer: ZDHHC11(M181A)/16-cPr

Question: Which “probe loading in HEK293T, FLAG IP” value (ZDHHC15) does the source give for `C#CCN(CCCCCCCCCCCCCCCC(=O)O)C(=O)C1CC1` [6h, 16-(N-(Prop-2-yn-1-yl)cyclopropanecarboxamido)hexadecanoic acid] here?
Answer: ZDHHC15(Y184G)/20-cPr

Question: And the “probe loading in HEK293T, FLAG IP” value (ZDHHC3)?
Answer: four additional optimized mutant/probe pairs: ZDHHC3(I182G)/20-cPr

Question: For `C#CCN(CCCCCCCCCCCCCCCC(=O)O)C(=O)c1ccccc1` [6i, 16-(N-(Prop-2-yn-1-yl)benzamido)hexadecanoic acid], which “probe loading in HEK293T, FLAG IP” value (ZDHHC7) is on record?
Answer: ZDHHC7(L57G)/20-Bz
